Source: article PMC10256202, “Allosteric regulation of Senecavirus A 3C^pro proteolytic activity by an endogenous phospholipid” (PLOS Pathogens, 2023)

Biological target: T1, SVA 3C^pro (Seneca Valley virus USA/SSV-001, UniProt Q155Z9)
T1 construct: full-length mature 3C cut from the genome polyprotein; codon-optimized, E. coli BL21(DE3); N-terminal His6-SUMO tag removed by ULP1 (lipid strips: His-tagged protein)
Assay: CL-specific ELISA of lipid co-purified with the protein
Details: endogenous E. coli lipid extracted by heating; lipid-binding (allosteric) site

T1 sequence (Q155Z9 1509-1719): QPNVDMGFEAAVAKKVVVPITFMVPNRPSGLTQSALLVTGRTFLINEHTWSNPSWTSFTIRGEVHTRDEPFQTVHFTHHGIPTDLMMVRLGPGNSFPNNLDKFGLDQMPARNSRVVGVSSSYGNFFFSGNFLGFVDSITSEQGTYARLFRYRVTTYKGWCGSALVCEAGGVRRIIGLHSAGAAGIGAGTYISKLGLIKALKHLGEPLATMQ

## cardiolipin [CL]
  lipid content: ~ 24.2 μg/L
